Results reported in patent US8455397B2, “Penoxsulam as a turfgrass, vineyard and orchard floor herbicide” (Dow AgroSciences, LLC, priority 2005, dated 2013).

Columns and labels:
[1] = tested on: broadleaf weeds and sedges; assay: Weed control in turfgrass and vine and orchard floors (general statement); type: in vivo; conditions: TRFRE, PLALA, TAROF, PLAMA, GLEHE, LESST, HYDSS, DIQVI, BELPE, CYPES
[2] = tested on: broadleaf plantain (PLAMA); assay: Postemergent granule herbicides, turfgrass field studies; type: in vivo, Plantago major L.; conditions: Table I, 2 sites, Penoxsulam 140 gai/Ha, Scotts Plus 2 1682+841 gae/Ha, Trimec 1121+516+112 gae/Ha
Procedure: (§1) Field studies were conducted in established turfgrass sites containing a natural population of target broadleaf weeds. Replicated trials, containing a minimum of three replications and having individual plots ranging in size from 25 to 50 ft. sq (2.3 to 4.6 square meters), were initiated in the late spring when turf and weeds were actively growing. Granule treatments were uniformly applied to individual plots using a common hand-shaker method. Applications were made in the early morning when dew was present. Natural rainfall and supplemental irrigation were used to maintain healthy turf and active weed growth throughout the study period. Control of each weed species in the study site was made at 2, 4 and 8 weeks after treatment. Control was determined visually by comparing treated and untreated weeds and scored on a 0 to 100 percent scale where 0 corresponds to no control and 100 corresponds to complete kill.

[3] = tested on: pennywort (dollarweed) (HYDSS); assay: as above; type: in vivo, Hydrocotyle spp; conditions: Table III, 1 site
Procedure: as §1

[4] = tested on: wild mustard (SINAR); assay: Pre-emergence orchard floor weeds, greenhouse study; type: in vivo, Sinapsis arvense; conditions: 28 Days After Application
Procedure: (§2) Greenhouse studies were conducted by seeding species in a loam soil and applying the herbicides to the soil surface using a Cornwall 5 milliliter glass syringe fitted with a TeeJet TN-3 nozzle on an area basis Immediately following herbicide application the pots were irrigated over the top to move the herbicides into the seeding zone. Pots were kept well irrigated throughout the trial. A percent visual weed control assessment was taken 4 weeks after application. Control was determined visually by comparing treated and untreated pots and scored on a 0 to 100 percent scale where 0 corresponds to no control and 100 corresponds to complete kill, or no emergence.

[5] = tested on: annual sowthistle (SONOL); assay: as above; type: in vivo, Sonchus oleraceus; conditions: 28 Days After Application
Procedure: as §2

[6] = tested on: dandelion (TAROF); assay: Postemergent granule herbicides, turfgrass field studies; type: in vivo, Taraxacum officinale
Procedure: as §1

[7] = tested on: yellow nutsedge (CYPES); assay: Granule carrier comparison, pre-emergence greenhouse study; type: in vivo, Cypres esculentus L.; conditions: pre-emergent greenhouse
Procedure: (§3) Greenhouse and field studies evaluated the effect of two granule carriers and two particles sizes on the postemergent broadleaf activity of penoxsulam. The two carriers were a 46-0-0 and 28-4-12 fertilizer blend and the particle sizes averaged 0.75 mm and 2.15 mm.
Greenhouse studies were applied both post and pre-emergence to broadleaf weeds and sedge reared from seed or nutlet in 12.7″ (32.25 cm) by 8.8″ (22.35 cm) flats of a loam soil. Particle size and carrier were evaluated post emergence, carrier comparisons with the smaller particle size of 0.75 was evaluated pre-emergence. Stage of growth of species at post emergence application: PLAMA and TAROF in the 3 to 5 leaf stage, TRFRE in the 3rd tri-foliate stage and CYPES in the 3 to 4 leaf stage. Post emergence trial design was a replicated block, one species per flat, 3 replicate flats per treatment. Granule treatments were uniformly applied to individual flats on an area basis using a common hand-shaker method. Post emergence applications were made to the flat covering both soil and misted foliage. Trial was sub-irrigated daily, and watered over the top 1 time per week starting 7 days after application to simulate a natural rainfall event. Active weed growth was maintained throughout the study period. Weed control of each species in the post emergence study was assessed at 2, 3 and 4 weeks after treatment. Pre-emergence trial design was 2 species per flat, 4 replicate flats, block design. Pre-emergence applications were made to the soil surface using a common hand shaker method on an area basis. Overhead irrigation was maintained throughout the trial. Weed control of each species in the pre-emergence study was assessed at 2, 3, 4 and 5 weeks after application. Control was determined visually by comparing treated and untreated flats and scored on a 0 to 100 percent scale where 0 corresponds to no control and 100 corresponds to complete kill.

[8] = tested on: yellow nutsedge (CYPES); assay: Pre-emergence weed nursery field study; type: in vivo, Cypres esculentus L.; conditions: weed nursery in the field, 27 Days After Application
Procedure: Field studies were conducted in a non-fumigated weed nursery trial. Weed species were planted in single strips with a row planter at 36 centimeter spacing. Plot size was 3.05×9.2 meters, 4 replicate plots per treatment. Weed species were seeded at appropriate depths and later the same day pre-emergent applications were made to the soil surface. Liquid applications were made using a backpack sprayer calibrated to deliver 187 liters per hectare (L/ha). Applications were made in Fresno, Calif. in June. Sprinkler irrigation was applied at regular intervals throughout study period. Control of each weed species in the study site was made 4 weeks after treatment. Control was determined visually by comparing treated and untreated weeds and scored on a 0 to 100 percent scale where 0 corresponds to no control and 100 corresponds to complete kill or no emergence.

[9] = tested on: white clover (TRFRE); assay: Granule carrier/particle size, postemergent field study; type: in vivo, Trifolium repens L.
Procedure: as §3, §1

[10] = carrier 28-4-12, particle size 0.75 mm, 11.2 gai/Ha
[11] = carrier 28-4-12, particle size 0.75 mm, 22.4 gai/Ha
[12] = carrier 46-0-0, particle size 0.75 mm, 11.2 gai/Ha
[13] = carrier 46-0-0, particle size 0.75 mm, 22.4 gai/Ha

COc1cnc(OC)n2nc(NS(=O)(=O)c3c(OCC(F)F)cccc3C(F)(F)F)nc12 [Penoxsulam, 2-(2,2-difluoroethoxy)-N-(5,8-dimethoxy[1,2,4]triazolo[1,5-c]-pyrimidin-2-yl)-6-(trifluoromethyl)benzenesulfonamide]
effectiveness against most important weeds [1]: particularly effective | Mean Percent Weed Control ([2]; 4 Weeks After Treatment): 81% | Mean Percent Weed Control ([2]; 8 Weeks After Treatment): 87% | Mean Percent Weed Control ([3]; 4 Weeks After Treatment, 22.4 gai/Ha): 50% | Mean Percent Weed Control ([3]; 4 Weeks After Treatment, 44.9 gai/Ha): 97% | Mean Percent Weed Control ([3]; 4 Weeks After Treatment, 67.3 gai/Ha): 98% | Mean Percent Weed Control ([3]; 4 Weeks After Treatment, 100 gai/Ha): 100% | Mean Percent Weed Control ([3]; 8 Weeks After Treatment, 22.4 gai/Ha): 40% | Mean Percent Weed Control ([3]; 8 Weeks After Treatment, 44.9 gai/Ha): 93% | Mean Percent Weed Control ([3]; 8 Weeks After Treatment, 67.3 gai/Ha): 84% | Mean Percent Weed Control ([3]; 8 Weeks After Treatment, 100 gai/Ha): 97% | Pre-emergent Percent Mean Control ([4]; 8.8 gai/Ha): 79% | Pre-emergent Percent Mean Control ([4]; 17.5 gai/Ha): 91% | Pre-emergent Percent Mean Control ([4]; 35 gai/Ha): 98% | Pre-emergent Percent Mean Control ([4]; 70 gai/Ha): 98% | Pre-emergent Percent Mean Control ([5]; 8.8 gai/Ha): 72% | Pre-emergent Percent Mean Control ([5]; 17.5 gai/Ha): 78% | Pre-emergent Percent Mean Control ([5]; 35 gai/Ha): 82% | Pre-emergent Percent Mean Control ([5]; 70 gai/Ha): 87% | Mean Percent Weed Control ([6]; Table I, 4 Weeks After Treatment, 5 sites, Penoxsulam 140 gai/Ha, Scotts Plus 2 1682+841 gae/Ha, Trimec 1121+516+112 gae/Ha): 93% | Mean Percent Weed Control ([6]; Table I, 8 Weeks After Treatment, 5 sites, Penoxsulam 140 gai/Ha, Scotts Plus 2 1682+841 gae/Ha, Trimec 1121+516+112 gae/Ha): 87% | Mean Percent Weed Control ([6]; Table III, 4 Weeks After Treatment, 22.4 gai/Ha, 6 sites): 45% | Mean Percent Weed Control ([6]; Table III, 4 Weeks After Treatment, 44.9 gai/Ha, 6 sites): 61% | Mean Percent Weed Control ([6]; Table III, 4 Weeks After Treatment, 67.3 gai/Ha, 6 sites): 61% | Mean Percent Weed Control ([6]; Table III, 4 Weeks After Treatment, 100 gai/Ha, 6 sites): 69% | Mean Percent Weed Control ([6]; Table III, 8 Weeks After Treatment, 22.4 gai/Ha, 6 sites): 25% | Mean Percent Weed Control ([6]; Table III, 8 Weeks After Treatment, 44.9 gai/Ha, 6 sites): 45% | Mean Percent Weed Control ([6]; Table III, 8 Weeks After Treatment, 67.3 gai/Ha, 6 sites): 47% | Mean Percent Weed Control ([6]; Table III, 8 Weeks After Treatment, 100 gai/Ha, 6 sites): 57% | Percent Weed Control 35 DAA ([7]; carrier 28-4-12, particle size 0.75 mm, 5.6 gai/Ha): 60% | Percent Weed Control 35 DAA [7, 10]: 70% | Percent Weed Control 35 DAA [7, 11]: 89% | Percent Weed Control 35 DAA ([7]; carrier 46-0-0, particle size 0.75 mm, 5.6 gai/Ha): 37% | Percent Weed Control 35 DAA [7, 12]: 57% | Percent Weed Control 35 DAA [7, 13]: 79% | Pre-emergent Percent Mean Control ([8]; 8.8 gai/Ha): 69% | Pre-emergent Percent Mean Control ([8]; 17.5 gai/Ha): 81% | Pre-emergent Percent Mean Control ([8]; 35 gai/Ha): 88% | Pre-emergent Percent Mean Control ([8]; 70 gai/Ha): 94% | Percent Weed Control 26-27 DAA [9, 10]: 80% | Percent Weed Control 26-27 DAA [9, 11]: 97% | Percent Weed Control 26-27 DAA ([9]; carrier 28-4-12, particle size 2.15 mm, 11.2 gai/Ha): 48% | Percent Weed Control 26-27 DAA ([9]; carrier 28-4-12, particle size 2.15 mm, 22.4 gai/Ha): 70% | Percent Weed Control 26-27 DAA [9, 12]: 82% | Percent Weed Control 26-27 DAA [9, 13]: 95% | Percent Weed Control 26-27 DAA ([9]; carrier 46-0-0, particle size 2.15 mm, 11.2 gai/Ha): 34% | Percent Weed Control 26-27 DAA ([9]; carrier 46-0-0, particle size 2.15 mm, 22.4 gai/Ha): 78%
